Consider eight compounds from US4107424A, “1-N-[(S)-α-hydroxy-ω-aminoacyl] derivatives of 3',4'-dideoxykanamycin B and 3'-deoxykanamycin B antibiotics” (Zaidan Hojin Biseibutsu Kagaku Kenkyu Kai, priority 1972, dated 1978).

Data set [1] deals with Escherichia coli K-12 JR 66/W 677. Kind of data set: Minimal inhibitory concentration, agar dilution streak method. The data set is classed as cell-based. Conditions: Escherichia coli, 18 h, read-out: minimum inhibitory concentrations. As for the experimental part: (§1) *Agar Agar dilution streak method (nutrient agar, 37° C, 18 hours)
(§2) *Agar dilution streak method (nutrient agar, 37° C, 18 hours).

The test system of data set [2] is Escherichia coli K-12 LA 290 R 55. Described as above. It is filed as cell-based. The following applies: 18 h, read-out: minimum inhibitory concentrations. As for the experimental part: as §1, §2
Data set [3] concerns Escherichia coli K-12 ML 1629. Described as above. It is filed as cell-based. The following applies: K12ML1629, nutrient agar, 37° C, 18 hours, drug-resistant strain, read-out: minimum inhibitory concentrations. As for the experimental part:
as §1, §2

Data set [4] relates to Pseudomonas aeruginosa GN 315. The description is as above. The following applies: GN315, nutrient agar, 37° C, 18 hours, drug-resistant strain, read-out: minimum inhibitory concentrations. The data set is classed as cell-based. As for the experimental part:
as §1, §2

In data set [5] the test system is Escherichia coli K-12 ML 1410. The data set is described as above. The data set is classed as cell-based. Conditions: K12ML1410, nutrient agar, 37° C, 18 hours, read-out: minimum inhibitory concentrations. As for the experimental part: as §1, §2
Data set [6] relates to Escherichia coli K-12 W 677. The data set is described as above. The data set is classed as cell-based. Conditions: K12W677, nutrient agar, 37° C, 18 hours, read-out: minimum inhibitory concentrations. As for the experimental part: as §1, §2
In data set [7] the test system is Pseudomonas aeruginosa A 3. The description is as above. It is filed as cell-based. Conditions: A3, nutrient agar, 37° C, 18 hours, read-out: minimum inhibitory concentrations. As for the experimental part:
as §1, §2

For data set [8], the system named is Pseudomonas aeruginosa No.12. Described as above. It is filed as cell-based. Conditions: nutrient agar, 37° C, 18 hours, read-out: minimum inhibitory concentrations. As for the experimental part:
as §1, §2

The subject of data set [9] is Staphylococcus aureus FDA 209P. The description is as above. The data set is classed as cell-based. Conditions: FDA209P, nutrient agar, 37° C, 18 hours, read-out: minimum inhibitory concentrations. As for the experimental part: as §1, §2
Data set [10] relates to gram-positive and gram-negative bacteria. Kind of data set: Antibacterial activity (in words). The data set is classed as cell-based. The following applies: for antibacterial activity compared with parent or reference substance: sensitive (and resistant) bacteria; for antibacterial activity: various gram-positive and gram-negative bacteria, including resistant strains. As for the experimental part: (§3) [α]D^22 + 38°, (c 0.85, water).

Data set [11] in a line: in vivo. Conditions: mouse, iv.
Data set [12] concerns mice. The data set is described as follows: Acute intravenous toxicity (LD50) in mice. Conditions: in words.
Data set [13] has as its system Pseudomonas aeruginosa 99. Kind of data set: Minimal inhibitory concentration, agar dilution streak method. The data set is classed as cell-based. Conditions: nutrient agar, 37° C, 18 hours, read-out: minimum inhibitory concentrations. As for the experimental part:
as §3, §1, §2

In data set [14] the test system is Escherichia coli K-12 LA 290 R 56. Described as above. The data set is classed as cell-based. The following applies: 18 h, read-out: minimum inhibitory concentrations. As for the experimental part:
as §1, §2

Data set [15] has as its system Escherichia coli K-12 LA 290 R 64. Described as above. It is filed as cell-based. The following applies: nutrient agar, 37° C, 18 hours, read-out: minimum inhibitory concentrations. As for the experimental part: as §1, §2
Data set [16] has as its system Escherichia coli K-12 ML 1410 R 81. The data set is described as above. The data set is classed as cell-based. Conditions: 18 h, read-out: minimum inhibitory concentrations. As for the experimental part: as §1, §2
In data set [17] the test system is Escherichia coli K-12 ML 1630. The description is as above. Conditions: K12ML1630, nutrient agar, 37° C, 18 hours, read-out: minimum inhibitory concentrations. It is filed as cell-based. As for the experimental part:
as §1, §2

The test system of data set [18] is Escherichia coli K-12. The description is as above. It is filed as cell-based. The following applies: K12, nutrient agar, 37° C, 18 hours, read-out: minimum inhibitory concentrations. As for the experimental part:
as §1, §2

Data set [19] concerns Pseudomonas aeruginosa TI-13. The data set is described as above. The data set is classed as cell-based. The following applies: TI13, nutrient agar, 37° C, 18 hours, read-out: minimum inhibitory concentrations. As for the experimental part: as §1, §2

SMILES strings stand for the structures. In brackets after ≈: the same amount, converted by molar mass.

As to `CNC[C@H]1O[C@H](O[C@H]2[C@H](O)[C@@H](O[C@H]3O[C@H](CO)[C@@H](O)[C@H](N)[C@H]3O)[C@H](N)C[C@@H]2N)[C@H](N)C[C@@H]1O` [3'-deoxy-6'-N-methylkanamycin B], the MIC in data set [1] was determined as 50 µg/mL (≈ 104 µM); in [2], 50 µg/mL (≈ 104 µM); in [3], 1.56 µg/mL (≈ 3.24 µM); in data set [4], 6.25 µg/mL (≈ 13 µM).
Regarding `NC[C@H]1O[C@H](O[C@H]2[C@H](O)[C@@H](O[C@H]3O[C@H](CO)[C@@H](O)[C@H](N)[C@H]3O)[C@H](N)C[C@@H]2N)[C@H](N)C[C@@H]1O` [3'-deoxykanamycin B], the MIC worked out at 50 µg/mL (≈ 107 µM) in data set [1], 50 µg/mL (≈ 107 µM) in data set [2], 0.78 µg/mL (≈ 1.67 µM) in [3] and 100 µg/mL (≈ 214 µM) in [4].
On to `NC[C@H]1O[C@H](O[C@H]2[C@H](O[C@@H]3O[C@H](CO)[C@@H](O)[C@H]3O)[C@@H](O)[C@H](N)C[C@@H]2N)[C@H](N)C[C@@H]1O` [3'-deoxyribostamycin], for which the MIC in data set [1], in [2], in data set [3] and in data set [4] was > 100 µg/mL in each case.
In the case of `NCC[C@H](O)C(=O)N[C@@H]1C[C@H](N)[C@@H](O[C@H]2O[C@H](CN)[C@@H](O)C[C@H]2N)[C@H](O)[C@H]1O[C@H]1O[C@H](CO)[C@@H](O)[C@H](N)[C@H]1O` [AHB-deoxykanamycin B, 1-N-[(S)-4-amino-2-hydroxybutyryl]-3'-deoxykanamycin B], the MIC in data set [1] was determined as 3.12 µg/mL (≈ 5.49 µM); in data set [2], 0.78 µg/mL (≈ 1.37 µM); in data set [5], 0.78 µg/mL (≈ 1.37 µM); in data set [3] it was 0.78 µg/mL (≈ 1.37 µM); in [6], 1.56 µg/mL (≈ 2.74 µM); in data set [7], 0.78 µg/mL (≈ 1.37 µM). Also, the MIC in data set [4] stood at 50 µg/mL (≈ 87.9 µM); in data set [8], 0.78 µg/mL (≈ 1.37 µM); in data set [9], 0.78 µg/mL (≈ 1.37 µM). For the same compound, the “antibacterial activity compared with parent or reference substance” value in [10] was “antibacterial activity as high as that of their parent substances”. Moreover, the antibacterial activity result in [10] was “high antibacterial activity against the kanamycin-resistant strains”. Moreover, the median lethal dose (LD50) in [11] was > 100 mg/kg. Moreover, the toxicity entry in [12] is listed as “toxicity as low as that of their parent substances”.
In the case of `NCC[C@H](O)C(=O)N[C@@H]1C[C@H](N)[C@@H](O[C@H]2O[C@H](CN)[C@@H](O)C[C@H]2N)[C@H](O)[C@H]1O` [AHB-deoxyneamine, 1-N-[(S)-4-amino-2-hydroxybutyryl]-3'-deoxyneamine], the MIC in data set [1], in data set [2], in [5], in data set [3], in data set [6] and in data set [7] was 6.25 µg/mL (≈ 15.3 µM) in each case. The MIC is > 100 µg/mL in data set [4], 6.25 µg/mL (≈ 15.3 µM) in data set [8] and 3.12 µg/mL (≈ 7.66 µM) in data set [9]. Besides, the “antibacterial activity compared with parent or reference substance” value in data set [10] is listed as “antibacterial activity as high as that of their parent substances”. In data set [10], the antibacterial activity result is on record as “high antibacterial activity against the kanamycin-resistant strains”. Moreover, the LD50 in data set [11] was > 100 mg/kg. For the same compound, the toxicity entry in data set [12] is given as “toxicity as low as that of their parent substances”.
Turning to `NCC[C@H](O)C(=O)N[C@@H]1C[C@H](N)[C@@H](O[C@H]2O[C@H](CN)[C@@H](O)C[C@H]2N)[C@H](O[C@@H]2O[C@H](CO)[C@@H](O)[C@H]2O)[C@H]1O` [AHB-deoxyribostamycin, 1-N-[(S)-4-amino-2-hydroxybutyryl]-3'-deoxyribostamycin], the MIC in data set [1] amounted to 3.12 µg/mL (≈ 5.78 µM); in [2], 1.56 µg/mL (≈ 2.89 µM); in [5] it was 0.78 µg/mL (≈ 1.45 µM); in [3], 1.56 µg/mL (≈ 2.89 µM); in [6] it was 0.78 µg/mL (≈ 1.45 µM); in data set [7] it was 1.56 µg/mL (≈ 2.89 µM). Moreover, the values for the MIC in data set [4], in data set [8] and in [9] were > 100 µg/mL, 3.12 µg/mL (≈ 5.78 µM) and 1.56 µg/mL (≈ 2.89 µM), respectively. Moreover, in data set [10], the “antibacterial activity compared with parent or reference substance” value is given as “antibacterial activity as high as that of their parent substances”. Also, the antibacterial activity result in [10] is “high antibacterial activity against the kanamycin-resistant strains”. Besides, the LD50 in data set [11] is > 100 mg/kg. Besides, the toxicity result in data set [12] is given as “toxicity as low as that of their parent substances”.
In the case of `NCC[C@H](O)C(=O)N[C@@H]1C[C@H](N)[C@@H](O[C@H]2O[C@H](CN)CC[C@H]2N)[C@H](O)[C@H]1O[C@H]1O[C@H](CO)[C@@H](O)[C@H](N)[C@H]1O` [AHB-dideoxykanamycin B, 1-N-[(S)-4-amino-2-hydroxy-n-butyryl]-3',4'-dideoxykanamycin B], the MIC in data set [13] turned out to be 12.5 µg/mL (≈ 22.6 µM); in data set [1] it was 1.56 µg/mL (≈ 2.82 µM); in [2] it was 0.78 µg/mL (≈ 1.41 µM); in [14], 0.39 µg/mL (≈ 0.706 µM); in data set [15], 0.78 µg/mL (≈ 1.41 µM); in [16] it was 1.56 µg/mL (≈ 2.82 µM). For the same compound, the MIC in data set [5] turned out to be 0.78 µg/mL (≈ 1.41 µM); in data set [3] it was 0.78 µg/mL (≈ 1.41 µM); in [17], 0.78 µg/mL (≈ 1.41 µM); in [6], 0.39 µg/mL (≈ 0.706 µM); in data set [18] it was 0.78 µg/mL (≈ 1.41 µM); in data set [7] it was 3.12 µg/mL (≈ 5.65 µM). The MIC in data set [8] stood at 1.56 µg/mL (≈ 2.82 µM); in data set [19], 3.12 µg/mL (≈ 5.65 µM); in data set [9], 0.78 µg/mL (≈ 1.41 µM). Also, the “antibacterial activity compared with parent or reference substance” value in [10] was “stronger antibacterial activity than those of kanamycin A and 3',4'-dideoxykanamycin B”. In [10], the antibacterial activity entry is “high antibacterial activity against drug-resistant strains such as Staphylococcus aureus, Escherichia coli and Pseudomonas aeruginosa strains which are resistant to kanamycin and DKB”. In addition, in [11], the LD50 was > 150 mg/kg. In addition, the toxicity entry in [12] is “toxicity as low as that of kanamycin”.
Consider `CNC[C@H]1O[C@H](O[C@H]2[C@H](O)[C@@H](O[C@H]3O[C@H](CO)[C@@H](O)[C@H](N)[C@H]3O)[C@H](NC(=O)[C@@H](O)CCN)C[C@@H]2N)[C@H](N)C[C@@H]1O` [AHB-methyldeoxykanamycin B, 1-N-[(S)-4-amino-2-hydroxybutyryl]-3'-deoxy-6'-N-methylkanamycin B], for which the MIC in data set [1] came out at 3.12 µg/mL (≈ 5.35 µM); in data set [2], 0.78 µg/mL (≈ 1.34 µM); in data set [5] it was 0.78 µg/mL (≈ 1.34 µM); in data set [3], 0.78 µg/mL (≈ 1.34 µM); in [6], 3.12 µg/mL (≈ 5.35 µM); in data set [7] it was 0.78 µg/mL (≈ 1.34 µM). Further, the MIC was 6.25 µg/mL (≈ 10.7 µM) in data set [4], 0.78 µg/mL (≈ 1.34 µM) in data set [8] and 0.78 µg/mL (≈ 1.34 µM) in data set [9]. For the same compound, in data set [10], the “antibacterial activity compared with parent or reference substance” value is listed as “antibacterial activity as high as that of their parent substances”. In addition, in data set [10], the antibacterial activity entry was “high antibacterial activity against the kanamycin-resistant strains”. For the same compound, the LD50 in [11] is > 100 mg/kg. Moreover, the toxicity result in data set [12] is recorded as “toxicity as low as that of their parent substances”.
